Patent publication US20250154163A1, “Pyrimidinone-Containing 17-Beta-Hydroxysteroid Dehydrogenase Type 13 Inhibitors” (ENANTA PHARMACEUTICALS, INC., priority 2023, published 2025)
Each block holds one compound with its values, some of them ahead of it.

Tests used:
[1] = biological target: T1, Recombinant human 17β-HSD13 (Homo sapiens, UniProt Q7Z5P4); assay: 17β-HSD13 rapid-fire mass spectrometry assay (RF/MS assay); assay type: biochemical; conditions: inhibition of 17β-HSD13, RF/MS assay; HSD17B13 80 nM, LTB4 10 μM, NAD+ 0.5 mM, RT 3 h
T1 construct: host or cells: Sf9 insect cells
T1 sequence (Q7Z5P4 20-300): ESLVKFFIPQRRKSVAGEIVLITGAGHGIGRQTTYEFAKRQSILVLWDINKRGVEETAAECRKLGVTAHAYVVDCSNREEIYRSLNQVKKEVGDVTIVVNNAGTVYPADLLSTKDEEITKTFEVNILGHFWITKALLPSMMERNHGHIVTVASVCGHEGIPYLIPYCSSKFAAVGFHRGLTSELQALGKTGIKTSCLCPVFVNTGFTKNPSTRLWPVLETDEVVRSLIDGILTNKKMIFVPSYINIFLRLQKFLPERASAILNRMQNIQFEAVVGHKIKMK
Excerpt: 17(3-HSD13 rapid-fire mass spectrometry assay (RF/MS assay). Recombinant human 17β-HSD13 was expressed and purified from sf9 cells at Charles River Labs (Saffron Walden, UK). Leukotriene B4 (Catalog #71160-24-2) and 12-oxoleukotriene B4 (Catalog #20140) were purchased from Cayman Chemicals (Ann Arbor, MI). NAD+ (Catalog #N8285), BSA (Catalog #A7030), DMSO (Catalog #D2650), and Tween-20 (Catalog #11332465001) were purchased from Sigma (St. Louis, MO). Formic acid (Catalog #28905) was from ThermoFisher Scientific and 384 deep well PP microplates (Catalog #784261) were from Greiner Bio-One. In a typical IC50 assay performed in a 384w PP microplate, test compounds (0-100 μM) were incubated with HSD17B13 (80 nM), LTB4 (10 μM), and NAD^+ (0.5 mM) in 10 μL assay buffer (20 mM Tris (pH 7.5), BSA (0.005%), and Tween-20 (0.01%)) at RT for 3 h. The assays were quenched by adding 20 μL of 0.15% aqueous formic acid and the plates were frozen at −80° C. RF/MS analysis was performed at PureHoney Technologies (Billerica, MA) on a RapidFire RF300 system (Agilent Technologies, Inc.) coupled to an API 4000 triple quadrupole mass spectrometer (Sciex) equipped with Agilent RapidFire cartridge type A (C4). The mobile phase was 0.09% formic acid and 0.01% trifluoracetic acid in water (Buffer A) and 0.09% formic acid and 0.01% trifluoracetic acid in 80% aqueous acetonitrile (Buffer B). The RapidFire method conditions were the following: 250 ms aspirate, 3000 ms load/desalt, 4000 ms elute, and 500 ms re-equilibrate. RF-MS/MS was performed in negative polarity (−4500 V), the source temperature was 650° C., and gas 1 and gas 2 settings for nitrogen were set to 50. The curtain gas and collision gas were also nitrogen and were set to 20 and 12, respectively. Leukotriene B4 (335.3) and 12-oxoLeukotriene B4 (333.3) SRM transitions were optimized with Discovery Quant software and extracted ion counts for these analytes were determined.
Data Analysis. 17β-HSD13 enzyme activity was measured as percent conversion of extracted ion counts and normalized to high and low controls to determine percent residual activity at various concentrations of test compounds. Data was fitted to normalized activity (variable slope) versus concentration fit in GraphPad Prism 7 to determine IC50. All experiments were run in duplicates.
By using the above method, the inhibition of 17β-HSD13 was evaluated for the compounds of Formula (I). IC50 ranges are as follows: A is <0.1 μM; B is 0.1 μM-1.0 μM; C is 1.0 μM-10 μm; and D is >10 μM.

[2] = biological target: T2, human HSD17β13 (stable HEK293T cell line overexpressing human HSD17β13) (Homo sapiens, UniProt Q7Z5P4); assay: HSD17β13 inhibitor cell-based screening assay (conversion of estradiol-d2 to estrone-d2 by RF-MS); conditions: conversion of estradiol-d2 to estrone-d2 after 24 hours
T2 construct: expressed in transfected cells
T2 sequence (Q7Z5P4 20-300): T1 sequence (Q7Z5P4 20-300)
In short: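 Cellular IC50 is based on 24-h conversion of estradiol-d2 (5 μM final) to estrone-d2, measured by RF-MS in acetonitrile-precipitated supernatants. Assay uses human HSD17β13-overexpressing HEK293T cells (7.5E3/well, 1% charcoal/dextran FBS MEM), with compounds dosed as a 9-point 1:3 series to 10 μM final. ATPlite luminescence on overexpressing and parent lines measured viability.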

- IC50 [1]: < 100 nM
- IC50 [2]: < 100 nM
Compound: O=c1c2c(nc(-c3ccc(F)cc3C3CC3)n1Cc1ccno1)sc1c(O)c(Cl)ccc12 [Example 52, 7-chloro-2-(2-cyclopropyl-4-fluorophenyl)-8-hydroxy-3-(isoxazol-5-ylmethyl)benzo[4,5]thieno[2,3-d]pyrimidin-4(3H)-one]

- IC50 [1]: < 100 nM
- IC50 [2]: < 100 nM
Compound: O=c1c2c(nc(-c3cc(F)c(F)cc3C3CC3)n1Cc1cnc(C(F)(F)F)nc1)sc1c(O)c(Cl)ccc12 [Example 63, 7-chloro-2-(2-cyclopropyl-4,5-difluorophenyl)-8-hydroxy-3-((2-(trifluoromethyl)pyrimidin-5-yl)methyl)benzo[4,5]thieno[2,3-d]pyrimidin-4(3H)-one]

- IC50 [1]: < 100 nM
- IC50 [2]: < 100 nM
Compound: O=c1c2c(nc(-c3cc(F)c(F)cc3C3CC3)n1Cc1cc(C(F)(F)F)on1)sc1c(O)c(Cl)ccc12 [Example 66, 7-chloro-2-(2-cyclopropyl-4,5-difluorophenyl)-8-hydroxy-3-((5-(trifluoromethyl)isoxazol-3-yl)methyl)benzo[4,5]thieno[2,3-d]pyrimidin-4(3H)-one]

- IC50 [1]: < 100 nM
- IC50 [2]: < 100 nM
Compound: CS(=O)(=O)c1ccc(-c2nc3sc4c(O)c(F)ccc4c3c(=O)n2Cc2cnc(C(F)(F)F)nc2)c(C2CC2)c1 [Example 71, 2-(2-cyclopropyl-4-(methylsulfonyl)phenyl)-7-fluoro-8-hydroxy-3-((2-(trifluoromethyl)pyrimidin-5-yl)methyl)benzo[4,5]thieno[2,3-d]pyrimidin-4(3H)-one]

- IC50 [1]: < 100 nM
- IC50 [2]: < 100 nM
Compound: CCOc1ccc(-c2nc3sc4c(O)c(Cl)ccc4c3c(=O)n2Cc2cnco2)c(C2CC2)c1 [Example 72, 7-chloro-2-(2-cyclopropyl-4-ethoxyphenyl)-8-hydroxy-3-(oxazol-5-ylmethyl)benzo[4,5]thieno[2,3-d]pyrimidin-4(3H)-one]

- IC50 [1]: < 100 nM
- IC50 [2]: < 100 nM
Compound: CC(C)Oc1ccc(-c2nc3sc4c(O)c(Cl)ccc4c3c(=O)n2Cc2cnco2)c(C2CC2)c1 [Example 73]

- IC50 [1]: < 100 nM
- IC50 [2]: < 100 nM
Compound: CC(C)(C)c1ccc(-c2nc3sc4c(O)c(Cl)ccc4c3c(=O)n2Cc2cnco2)c(C2CC2)c1 [Example 75, 2-(4-(tert-butyl)-2-cyclopropylphenyl)-7-chloro-8-hydroxy-3-(oxazol-5-ylmethyl)benzo[4,5]thieno[2,3-d]pyrimidin-4(3H)-one]

Further lines, the compound ahead of its results:

Compound: Cc1cc(Cn2c(-c3ccc(F)cc3C3CC3)nc3sc4c(O)c(Cl)ccc4c3c2=O)on1 [Example 43, 7-chloro-2-(2-cyclopropyl-4-fluorophenyl)-8-hydroxy-3-((3-methylisoxazol-5-yl)methyl)benzo[4,5]thieno[2,3-d]pyrimidin-4(3H)-one]
- IC50 [1]: < 100 nM
- IC50 [2]: < 100 nM

Compound: Cc1ncc(Cn2c(-c3ccc(F)cc3C3CC3)nc3sc4c(O)c(Cl)ccc4c3c2=O)o1 [Example 44, 7-chloro-2-(2-cyclopropyl-4-fluorophenyl)-8-hydroxy-3-((2-methyloxazol-5-yl)methyl)benzo[4,5]thieno[2,3-d]pyrimidin-4(3H)-one]
- IC50 [1]: < 100 nM
- IC50 [2]: < 100 nM

Compound: COc1ccc(-c2nc3sc4c(O)c(Cl)ccc4c3c(=O)n2Cc2cc(C(F)(F)F)no2)c(C2CC2)c1 [Example 48, 7-chloro-2-(2-cyclopropyl-4-methoxyphenyl)-8-hydroxy-3-((3-(trifluoromethyl)isoxazol-5-yl)methyl)benzo[4,5]thieno[2,3-d]pyrimidin-4(3H)-one]
- IC50 [1]: < 100 nM
- IC50 [2]: < 100 nM

Compound: O=c1c2c(nc(-c3ccc(F)cc3C3CC3)n1Cc1cnc(C3CC3)o1)sc1c(O)c(Cl)ccc12 [Example 50, 7-chloro-2-(2-cyclopropyl-4-fluorophenyl)-3-((2-cyclopropyloxazol-5-yl)methyl)-8-hydroxybenzo[4,5]thieno[2,3-d]pyrimidin-4(3H)-one]
- IC50 [1]: < 100 nM
- IC50 [2]: < 100 nM
